Measurements from the supplement of paper PMC9663587.

Columns and labels:
[1] = compound: CCCCOc1c(C(=O)c2c(F)cc(C)cc2F)c[nH]c2nncc1-2
BVD523 = compound: CC(C)Nc1cc(-c2c[nH]c(C(=O)N[C@H](CO)c3cccc(Cl)c3)c2)c(Cl)cn1 [BVD523]
[2] = compound: CCc1cnn2c(NCc3ccc[n+]([O-])c3)cc(N3CCCC[C@H]3CCO)nc12
THZ531 = compound: CN(C)C/C=C/C(=O)Nc1ccc(C(=O)N2CCC[C@@H](Nc3ncc(Cl)c(-c4c[nH]c5ccccc45)n3)C2)cc1 [THZ531]
Doxorubicin = compound: COc1cccc2c1C(=O)c1c(O)c3c(c(O)c1C2=O)C[C@@](O)(C(=O)CO)C[C@@H]3O[C@H]1C[C@H](N)[C@H](O)[C@H](C)O1 [Doxorubicin]
Cediranib/AZD2171 = compound: COc1cc2c(Oc3ccc4[nH]c(C)cc4c3F)ncnc2cc1OCCCN1CCCC1 [Cediranib/AZD2171]
BSJ-03-123 = compound: CC(=O)c1c(C)c2cnc(Nc3ccc(N4CCN(CCOCCOCCOCCNC(=O)COc5cccc6c5C(=O)N(C5CCC(=O)NC5=O)C6=O)CC4)cn3)nc2n(C2CCCC2)c1=O [BSJ-03-123]
TGX221 = compound: CC1=CN2C(=O)C=C(N=C2C(=C1)C(C)NC3=CC=CC=C3)N4CCOCC4 [TGX221]
LEE011/Ribociclib = compound: CN(C)C(=O)c1cc2cnc(Nc3ccc(N4CCNCC4)cn3)nc2n1C1CCCC1 [LEE011/Ribociclib]
[3] = compound: CC(=O)c1c(C)c2cnc(Nc3ccc(N4CCNCC4)cn3)nc2n(C2CCCC2)c1=O
THZ1 = compound: CN(C)C/C=C/C(=O)Nc1ccc(C(=O)Nc2cccc(Nc3ncc(Cl)c(-c4c[nH]c5ccccc45)n3)c2)cc1 [THZ1]
Pictilisib/GDC0941 = compound: CS(=O)(=O)N1CCN(Cc2cc3nc(-c4cccc5[nH]ncc45)nc(N4CCOCC4)c3s2)CC1 [Pictilisib/GDC0941]
[4] = compound: Cc1nn(C)c(COc2ccc(N3CCN(S(=O)(=O)N(C)C)CC3)cc2)c1-c1cccc2c(CCCOc3cccc4ccccc34)c(C(=O)O)n(CCN3CCOCC3)c12
AZD1775 = compound: C=CCn1c(=O)c2cnc(Nc3ccc(N4CCN(C)CC4)cc3)nc2n1-c1cccc(C(C)(C)O)n1 [AZD1775]
Torin2 = compound: C1=CC(=CC(=C1)N2C(=O)C=CC3=CN=C4C=CC(=CC4=C32)C5=CN=C(C=C5)N)C(F)(F)F [Torin2]
Neratinib/HKI272 = compound: CCOc1cc2ncc(C#N)c(Nc3ccc(OCc4ccccn4)c(Cl)c3)c2cc1NC(=O)/C=C/CN(C)C [Neratinib/HKI272]
Ceritinib/LDK378 = compound: Cc1cc(Nc2ncc(Cl)c(Nc3ccccc3S(=O)(=O)C(C)C)n2)c(OC(C)C)cc1C1CCNCC1 [Ceritinib/LDK378]
INK128/MLN0128 = compound: CC(C)n1nc(-c2ccc3oc(N)nc3c2)c2c(N)ncnc21 [INK128/MLN0128]
senexin b = compound: CN1CCN(C(=O)c2ccc3cc(CCNc4ncnc5ccc(C#N)cc45)ccc3c2)CC1 [senexin b]
Alpelisib/BYL719 = compound: Cc1nc(NC(=O)N2CCC[C@H]2C(N)=O)sc1-c1ccnc(C(C)(C)C(F)(F)F)c1 [Alpelisib/BYL719]
Rucaparib = compound: CNCc1ccc(-c2[nH]c3cc(F)cc4c3c2CCNC4=O)cc1 [Rucaparib]
[5] = compound: CNc1nc(-c2ccc3c(N)n[nH]c3c2)cc(N2C[C@@H](C(=O)NC3CCCCC3)CC[C@H]2C)n1
Cabozantinib = compound: COc1cc2nccc(Oc3ccc(NC(=O)C4(C(=O)Nc5ccc(F)cc5)CC4)cc3)c2cc1OC [Cabozantinib]
Olaparib/AZD2281 = compound: O=C(c1cc(Cc2n[nH]c(=O)c3ccccc23)ccc1F)N1CCN(C(=O)C2CC2)CC1 [Olaparib/AZD2281]
Dasatinib = compound: Cc1nc(Nc2ncc(C(=O)Nc3c(C)cccc3Cl)s2)cc(N2CCN(CCO)CC2)n1 [Dasatinib]
Volasertib/BI6727 = compound: CC[C@@H]1C(=O)N(C)c2cnc(Nc3ccc(C(=O)N[C@H]4CC[C@H](N5CCN(CC6CC6)CC5)CC4)cc3OC)nc2N1C(C)C [Volasertib/BI6727]
R0-3306 = compound: C1=CC2=C(C=CC(=C2)C=C3C(=O)NC(=NCC4=CC=CS4)S3)N=C1 [R0-3306]
Paclitaxel = compound: CC(=O)O[C@H]1C(=O)[C@@]2(C)[C@H]([C@H](OC(=O)c3ccccc3)[C@]3(O)C[C@H](OC(=O)[C@H](O)[C@@H](NC(=O)c4ccccc4)c4ccccc4)C(C)=C1C3(C)C)[C@]1(OC(C)=O)CO[C@@H]1C[C@@H]2O [Paclitaxel]
THZ-P1-2 = compound: CN(C)C/C=C/C(=O)NC1=CC=C(C=C1)C(=O)NC2=CC=CC(=C2)NC3=NC=NC(=C3)C4=CNC5=CC=CC=C54 [THZ-P1-2]
AZD5363 = compound: NC1(C(=O)N[C@@H](CCO)c2ccc(Cl)cc2)CCN(c2nc[nH]c3nccc2-3)CC1 [AZD5363]
Buparlisib/NVP-BKM120 = compound: Nc1cc(C(F)(F)F)c(-c2cc(N3CCOCC3)nc(N3CCOCC3)n2)cn1 [Buparlisib/NVP-BKM120]
Luminespib/NVP-AUY922 = compound: CCNC(=O)c1noc(-c2cc(C(C)C)c(O)cc2O)c1-c1ccc(CN2CCOCC2)cc1 [Luminespib/NVP-AUY922]
SHP099 = compound: CC1(CCN(CC1)C2=CN=C(C(=N2)N)C3=C(C(=CC=C3)Cl)Cl)N [SHP099]
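Note: breast cancer and non-malignant breast epithelial cell lines, Deep Dye Drop or Dye Drop imaging, nine half-log doses, GR normalized to time-zero plates and DMSO-only controls.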

Cell Line	GR50, 72 h [1] [µM]	GR50, 72 h (BVD523) [µM]	GR50, 72 h [2] [µM]	GR50, 72 h (THZ531) [µM]	GR50, 72 h (Doxorubicin) [µM]	GR50, 72 h (Cediranib/AZD2171) [µM]	GR50, 72 h (BSJ-03-123) [µM]	GR50, 72 h (TGX221) [µM]	GR50, 72 h (LEE011/Ribociclib) [µM]	GR50, 72 h [3] [µM]	GR50, 72 h (THZ1) [µM]	GR50, 72 h (Pictilisib/GDC0941) [µM]	GR50, 72 h [4] [µM]	GR50, 72 h (AZD1775) [µM]	GR50, 72 h (Torin2) [µM]	GR50, 72 h (Neratinib/HKI272) [µM]	GR50, 72 h (Ceritinib/LDK378) [µM]	GR50, 72 h (INK128/MLN0128) [µM]	GR50, 72 h (senexin b) [µM]	GR50, 72 h (Alpelisib/BYL719) [µM]	GR50, 72 h (Rucaparib) [µM]	GR50, 72 h [5] [µM]	GR50, 72 h (Cabozantinib) [µM]	GR50, 72 h (Olaparib/AZD2281) [µM]	GR50, 72 h (Dasatinib) [µM]	GR50, 72 h (Volasertib/BI6727) [µM]	GR50, 72 h (R0-3306) [µM]	GR50, 72 h (Paclitaxel) [µM]	GR50, 72 h (THZ-P1-2) [µM]	GR50, 72 h (AZD5363) [µM]	GR50, 72 h (Buparlisib/NVP-BKM120) [µM]	GR50, 72 h (Luminespib/NVP-AUY922) [µM]	GR50, 72 h (SHP099) [µM]
HTERT_HME1	0.0012	0.213	0.0121	0.22	0.00471	7.57	0.366	> 10	1.2	0.222	0.00442	2.8	0.899	0.302	0.0253	0.151	0.822	0.0335	> 10	6.04	> 10	> 10	3.24	> 10	0.183	0.0172	4.01	0.00317	4.1	> 10	1.15	0.00855	> 10
MDAMB415	1.87	> 10	0.0203	0.0474	0.00521	1.46	1.36	1.81	0.00974	0.0304	0.0347	0.597	> 10	1.56	0.00771	1.65	3.76	0.0102	> 10	> 10	> 10	1.34	6.41	> 10	0.236	0.0112	> 10	0.000687	0.0764	0.0101	1.02	0.00909	> 10
PDXHCI002	3.29	4.27	0.0122	0.0493	0.00405	1.47	1.64	> 10	> 10	0.127	0.0115	2.25	> 10	0.23	0.123	0.162	0.338	0.169	> 10	> 10	> 10	> 10	7.21	3.93	0.509	0.00369	6.43	0.00249	> 10	> 10	1.44	0.00439	> 10
MDAMB436	1.02	> 10	0.0143	0.19	0.00761	3.61	7.25	> 10	> 10	> 3.16	0.135	5.27	> 10	0.175	0.0412	0.715	0.499	0.0241	8.65	> 10	0.828	> 10	6.5	1.53	> 10	0.00518	4.65	0.00371	4.3	> 10	1.18	0.00391	> 10
SUM159	0.159	1.91	0.0169	> 1	0.021	> 10	1.94	> 10	9.31	1.73	0.361	4.53	> 10	2.05	0.0417	> 3.16	2.1	0.0561	> 10	> 10	> 10	> 10	7.15	> 10	> 10	0.0247	7.13	0.00542	6.79	9.8	2.21	0.00945	> 10
AU565	0.142	> 10	0.00743	0.055	0.0352	> 10	1.21	> 10	0.663	0.165	0.0187	0.067	> 10	0.216	0.00547	0.00121	3.15	0.00529	> 10	0.27	> 10	7.64	9.13	> 10	5.35	0.00381	0.478	0.00163	5.22	5.83	0.106	0.00456	> 10
EVSAT	1.45	> 10	0.0263	0.124	0.00911	9.9	3.31	1.39	> 10	> 3.16	0.0571	0.621	> 10	3.96	0.015	> 3.16	6.18	0.0112	> 10	> 10	> 10	1.77	> 10	> 10	0.166	0.00932	5.54	0.00167	> 10	0.0128	1.04	0.00716	> 10
